The source made the active and inactive calls. The rule behind the calls is not given here.
Legend:
[1] = tested on: SW-620; assay: Antitumor activity against human SW620 cells xenografted in BALB/c nude mouse assessed as decrease in Ki-67 level at 2 mg/kg, ip qd for 16 days by IHC analysis; type: functional, organism-based; details: time 16.0 day
[2] = Antiproliferative activity against mouse […] cells; type: toxicity, cell-based
[3] = tested on: SW-620; assay: Antitumor activity against human SW620 cells xenografted in BALB/c nude mouse assessed as nuclear pyknosis in tumor cells at 2 mg/kg, ip qd for 16 days by H and E staining based analysis; type: functional, organism-based; details: time 16.0 day
[4] = tested on: SW-620; assay: Antitumor activity against human SW620 cells xenografted in BALB/c nude mouse at 2 mg/kg, ip qd for 16 days relative to control; type: functional; details: SW-620, 384 h, time 16 day, read-out: TGI
[5] = Antiproliferative activity against HEK293T cells; type: toxicity, cell-based, HEK-293T; details: human
[6] = target: T1, Peroxiredoxin-1 (Homo sapiens) (UniProt Q06830)
T1 sequence (whole entry): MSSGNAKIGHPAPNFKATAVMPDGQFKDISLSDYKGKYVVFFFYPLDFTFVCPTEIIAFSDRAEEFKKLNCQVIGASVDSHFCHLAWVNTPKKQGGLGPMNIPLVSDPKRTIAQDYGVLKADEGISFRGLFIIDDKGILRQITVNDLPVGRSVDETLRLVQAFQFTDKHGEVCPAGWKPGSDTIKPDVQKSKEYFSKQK
Description: Binding affinity to recombinant PRDX1 (unknown origin)assessed as change in melting temperature by protein thermal shift assay

[7] = target: T2, Peroxiredoxin-1 (Homo sapiens, UniProt Q06830); assay: Inhibition of recombinant PRDX1 (unknown origin) using H2O2 as substrate preincubated for 0.5 hrs followed by substrate addition by TRX-TrxR-NADPH coupling assay
T2 sequence (Q06830 whole entry): T1 sequence (whole entry)

[8] = tested on: SW-620; assay: Induction of cell cycle arrest at G2 phase in human SW620 cells at 2 uM incubated for 24 hrs by PI staining based flow cytometry (reference value: 6.77 %); type: functional
[9] = Toxicity in BALB/c nude mouse xenografted with human SW620 cells assessed as body weight loss at 2 mg/kg, ip qd for 16 days; type: organism-based, SW-620; details: in vivo, 384 h, time 16 day
[10] = tested on: SW-620; assay: Anti-proliferative activity against human SW620 cells xenografted in BALB/c nude mouse at 2 mg/kg, ip qd for 16 days by TUNEL analysis; type: functional, organism-based; details: time 16.0 day
[11] = Selectivity ratio of IC50 for mouse […] cells to IC50 for human HCT-116 cells; type: functional
[12] = Acute toxicity in C57BL/[…] 6J mouse assessed as pathological change in liver at 20 mg/kg, ip measured for 2 weeks by H and E staining based analysis; type: organism-based; details: in vivo, 336 h
[13] = tested on: SW-620; assay: Induction of apoptosis in human SW620 cells assessed as decrease in Bcl-2 level incubated for 48 hrs by Western blot analysis; type: functional, cell-based; details: dose 0.25-2 µM
[14] = tested on: SW-620; assay: Induction of cell cycle arrest at G2/M phase in human SW620 cells at 0.5 to 2 uM incubated for 48 hrs by PI staining based flow cytometry relative to control; type: functional; details: dose 0.5-2 µM
[15] = tested on: SW-620; assay: Induction of cell cycle arrest at S phase in human SW620 cells at 0.5 uM incubated for 24 hrs by PI staining based flow cytometry (reference value: 59.9 %); type: functional
[16] = tested on: SW-620; assay: Induction of mitochondrial membrane potential depolarization in human SW620 cells assessed as JC-1-stained red cells upto 2 uM incubated for 48 hrs by flow cytometry (reference value: 89.8 %); type: functional; details: up to 2 µM
[17] = target: T2, Peroxiredoxin-1; assay: Binding affinity to CM5 sensor chip-immobilized recombinant PRDX1 (unknown origin) assessed as dissociation constant by SPR analysis
[18] = tested on: SW-620; assay: Induction of apoptosis in human SW620 cells assessed as total apoptotic cells at 1 uM incubated for 48 hrs by Annexin V-FITC/PI staining based flow cytometry relative to control; type: functional
[19] = tested on: SW-620; assay: Induction of mitochondrial membrane potential depolarization in human SW620 cells assessed as JC-1-stained green cells upto 2 uM incubated for 48 hrs by flow cytometry (reference value: 8.9 %); type: functional; details: up to 2 µM
[20] = AUC (0 to infinity) in mouse at 2 mg/kg, iv measured for 24 hrs by LC-MS/MS analysis; type: ADME, organism-based; details: in vivo
[21] = Half life in mouse at 2 mg/kg, iv measured for 24 hrs by LC-MS/MS analysis; type: ADME, organism-based; details: in vivo
[22] = tested on: SW-620; assay: Antitumor activity against human SW620 cells xenografted in BALB/c nude mouse assessed as decrease in tumor weight at 2 mg/kg, ip qd for 16 days; type: functional, organism-based; details: time 16.0 day
[23] = tested on: SW-620; assay: Inhibition of cell viability in human SW620 cells incubated for 72 hrs by Cell Titer Glo assay; type: functional, cell-based; details: SW-620, 72 h
[24] = tested on: SW-620; assay: Induction of mitochondrial membrane potential depolarization in human SW620 cells assessed as reduction in red fluorescence incubated for 48 hrs by JC1-staining based CLSM analysis; type: functional, cell-based; details: dose 0.5-2 µM
[25] = tested on: SW-620; assay: Induction of mitochondrial membrane potential depolarization in human SW620 cells assessed as decrease in fluorescence intensity ratio of JC1-stained aggregates to monomers incubated for 48 hrs by CLSM analysis; type: functional, cell-based; details: dose 0.5-2 µM
[26] = target: T3, Peroxiredoxin-5, mitochondrial (Homo sapiens, UniProt P30044); assay: Inhibition of recombinant PRDX5 (unknown origin) using H2O2 as substrate preincubated for 0.5 hrs followed by substrate addition by TRX-TrxR-NADPH coupling assay
T3 sequence (P30044 whole entry): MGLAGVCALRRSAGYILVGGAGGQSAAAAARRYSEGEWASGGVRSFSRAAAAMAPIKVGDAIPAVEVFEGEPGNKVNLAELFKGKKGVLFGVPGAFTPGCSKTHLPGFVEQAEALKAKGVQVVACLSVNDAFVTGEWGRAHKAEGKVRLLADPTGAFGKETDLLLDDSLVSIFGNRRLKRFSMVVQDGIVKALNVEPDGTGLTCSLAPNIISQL

[27] = tested on: SW-620; assay: Antitumor activity against human SW620 cells xenografted in BALB/c nude mouse assessed as morphological change in vacuoles in tumor cells at 2 mg/kg, ip qd for 16 days by H and E staining based analysis; type: functional, organism-based; details: time 16.0 day
[28] = tested on: SW-620; assay: Induction of apoptosis in human SW620 cells assessed as total apoptotic cells at 2 uM incubated for 48 hrs by Annexin V-FITC/PI staining based flow cytometry relative to control; type: functional
[29] = tested on: SW-620; assay: Induction of cell cycle arrest at S phase in human SW620 cells at 2 uM incubated for 24 hrs by PI staining based flow cytometry (reference value: 59.9 %); type: functional
[30] = tested on: SW-620; assay: cells; details: Homo sapiens, SW-620, 48 h, read-out: Activity
Description: Induction of apoptosis in human SW620 cells assessed as viable cells at 0.5 uM incubated for 48 hrs by Annexin V-FITC/PI staining based flow cytometry (Rvb = 90.7 %)

[31] = Acute toxicity in C57BL/[…] 6J mouse assessed as pathological change in spleen at 20 mg/kg, ip measured for 2 weeks by H and E staining based analysis; type: organism-based; details: in vivo, 336 h
[32] = Selectivity ratio of IC50 for human LX2 cells to IC50 for human HCT-116 cells; type: functional
[33] = tested on: SW-620; assay: cells; details: Homo sapiens, SW-620, 48 h, read-out: Activity; remark: listed apart in the source
Description: Induction of apoptosis in human SW620 cells assessed as viable cells at 1 uM incubated for 48 hrs by Annexin V-FITC/PI staining based flow cytometry (Rvb = 90.7 %)

[34] = tested on: SW-620; assay: Induction of mitochondrial membrane potential depolarization in human SW620 cells assessed as change in morphological characteristics at 0.5 to 2 uM incubated for 48 hrs by bright-field microscopy; type: functional, cell-based; details: dose 0.5-2 µM

Question: With COC(=O)C1(NC(=O)N[C@]2(C)CC[C@]3(C)CC[C@]4(C)C5=CC=C6C(=CC(=O)C(O)=C6C)[C@]5(C)CC[C@@]4(C)[C@@H]3C2)CCC1 as the compound, how does the Activity [1] read?
Answer: Active

Question: What about the IC50 [2] of the same compound?
Answer: ~1000 nM

Question: What about the Activity [3] of the same compound?
Answer: Active

Question: What about the inhibition in vivo at 2 mg/kg [4] of the same compound?
Answer: 45.4%

Question: What about the IC50 [5] of the same compound?
Answer: ~1000 nM

Question: What about the ΔTm [6] of the same compound?
Answer: -7.5 °C

Question: What about the IC50 [7] of the same compound?
Answer: 350 nM

Question: What about the Activity [8] of the same compound?
Answer: 17.4%

Question: And the Activity [9]?
Answer: Non-Toxic

Question: And the Activity [10]?
Answer: Active

Question: And the Selectivity ratio [11]?
Answer: 2

Question: What about the Activity [12] of the same compound?
Answer: Non-Toxic

Question: And the Activity [13]?
Answer: Dose-Dependent Effect

Question: What about the Activity [14] of the same compound?
Answer: 7.1%

Question: And the Activity [15]?
Answer: 57.3%

Question: What about the Activity [16] of the same compound?
Answer: 39.2%

Question: What about the Kd [17] of the same compound?
Answer: 370 nM

Question: And the Activity [18]?
Answer: 19%

Question: And the Activity [19]?
Answer: 54.6%

Question: What about the AUC(0-inf) [20] of the same compound?
Answer: 403 ng·h/mL

Question: And the half-life [21]?
Answer: 8.46 h

Question: And the Activity [22]?
Answer: Active

Question: What about the IC50 [23] of the same compound?
Answer: 320 nM

Question: And the Activity [24]?
Answer: Dose-Dependent Effect

Question: And the Activity [25]?
Answer: Dose-Dependent Effect

Question: And the IC50 [26]?
Answer: > 50000 nM

Question: And the Activity [27]?
Answer: Active

Question: What about the Activity [28] of the same compound?
Answer: 54.7%

Question: And the Activity [29]?
Answer: 50.1%

Question: What about the viability at 0.5 µM [30] of the same compound?
Answer: 88.5%

Question: And the Activity [31]?
Answer: Non-Toxic

Question: What about the Selectivity ratio [32] of the same compound?
Answer: 2

Question: What about the viability at 1 µM [33] of the same compound?
Answer: 78.8%

Question: What about the Activity [34] of the same compound?
Answer: Active
